The values below come from patent publication US9771351B2, “Wnt signaling inhibitor” (KYOWA HAKKO KIRIN CO., LTD., priority 2013, dated 2017).

In assay [1] the test system is T-cell factor (TCF)-luciferase reporter using Wnt pathway as index. Description: Inhibitory activity against TCF-luciferase reporter using Wnt pathway as index (DLD-1/TCF-Luc cells). It is filed as cell-based, human. The following applies: for inhibition at 1 µM: Homo sapiens, read-out: Inhibition ratio (%) at 1 μmol/L. The procedure:
Test Example 1: Inhibitory Activity Against T-Cell Factor (TCF)-Luciferase Reporter Using Wnt Pathway as Index
The inhibitory activity of test compounds against Wnt pathway was evaluated by the following method.
A human colorectal adenocarcinoma cell line DLD-1 (Japanese Collection of Research Bioresources) was cultured in RPMI-1640 medium (Gibco/Life Technologies, Inc.) containing 10% fetal bovine serum (Gibco/Life Technologies, Inc.), 10 mmol/L of a 4-(2-hydroxyethyl)-1-piperazineethanesulfonic acid (HEPES) buffer solution (Gibco/Life Technologies, Inc.), 1 mmol/L of a sodium pyruvate solution (Gibco/Life Technologies, Inc.), 4.5 g/L of a D-(+)-glucose solution (Sigma-Aldrich, Inc.), 100 units/mL penicillin (Gibco/Life Technologies, Inc.) and 100 μg/mL of streptomycin (Gibco/Life Technologies, Inc.) under the conditions of 37° C. and 5% carbon dioxide gas. The DLD-1 cells were seeded in a 10 cm dish, and 20 μg of a luciferase gene plasmid pGL4.27 having a TCF responsive sequence inserted therein was transfected into the cells using 10 μL of Attractene (Qiagen, Inc.) according to the protocol attached to the product. A stably expressing cell line (DLD-1/TCF-Luc) was selected using […] of hygromycin B (Wako Pure Chemical Industries Ltd.). The DLD-1/TCF-Luc cells were detached with trypsin and seeded in a 384-well plate, and a test compound was added at different concentrations. After 18 hours, the luciferase activity was measured using Steady-Glo™ Luciferase Assay System (Promega, Inc.).
The inhibition ratio was obtained according to the following formula 1. The inhibition ratio (%) of the compound of the present invention at 1 μmol/L against the TCF-luciferase reporter using the Wnt pathway as an index is shown in Table 6. [Math. 1] Inhibition ratio (%)=100−{(luciferase activity when test compound was added)−(luciferase activity of blank)}/{(luciferase activity of control)−(luciferase activity of blank)}×100 Formula 1
A general note: A reporter such as luciferase makes a cellular process visible.

A further assay concerns the target T1, tankyrase-2 (Homo sapiens, UniProt Q9H2K2).
T1 construct: purchased BPS Bioscience, Inc. 80566
T1 sequence (Q9H2K2 1-1166): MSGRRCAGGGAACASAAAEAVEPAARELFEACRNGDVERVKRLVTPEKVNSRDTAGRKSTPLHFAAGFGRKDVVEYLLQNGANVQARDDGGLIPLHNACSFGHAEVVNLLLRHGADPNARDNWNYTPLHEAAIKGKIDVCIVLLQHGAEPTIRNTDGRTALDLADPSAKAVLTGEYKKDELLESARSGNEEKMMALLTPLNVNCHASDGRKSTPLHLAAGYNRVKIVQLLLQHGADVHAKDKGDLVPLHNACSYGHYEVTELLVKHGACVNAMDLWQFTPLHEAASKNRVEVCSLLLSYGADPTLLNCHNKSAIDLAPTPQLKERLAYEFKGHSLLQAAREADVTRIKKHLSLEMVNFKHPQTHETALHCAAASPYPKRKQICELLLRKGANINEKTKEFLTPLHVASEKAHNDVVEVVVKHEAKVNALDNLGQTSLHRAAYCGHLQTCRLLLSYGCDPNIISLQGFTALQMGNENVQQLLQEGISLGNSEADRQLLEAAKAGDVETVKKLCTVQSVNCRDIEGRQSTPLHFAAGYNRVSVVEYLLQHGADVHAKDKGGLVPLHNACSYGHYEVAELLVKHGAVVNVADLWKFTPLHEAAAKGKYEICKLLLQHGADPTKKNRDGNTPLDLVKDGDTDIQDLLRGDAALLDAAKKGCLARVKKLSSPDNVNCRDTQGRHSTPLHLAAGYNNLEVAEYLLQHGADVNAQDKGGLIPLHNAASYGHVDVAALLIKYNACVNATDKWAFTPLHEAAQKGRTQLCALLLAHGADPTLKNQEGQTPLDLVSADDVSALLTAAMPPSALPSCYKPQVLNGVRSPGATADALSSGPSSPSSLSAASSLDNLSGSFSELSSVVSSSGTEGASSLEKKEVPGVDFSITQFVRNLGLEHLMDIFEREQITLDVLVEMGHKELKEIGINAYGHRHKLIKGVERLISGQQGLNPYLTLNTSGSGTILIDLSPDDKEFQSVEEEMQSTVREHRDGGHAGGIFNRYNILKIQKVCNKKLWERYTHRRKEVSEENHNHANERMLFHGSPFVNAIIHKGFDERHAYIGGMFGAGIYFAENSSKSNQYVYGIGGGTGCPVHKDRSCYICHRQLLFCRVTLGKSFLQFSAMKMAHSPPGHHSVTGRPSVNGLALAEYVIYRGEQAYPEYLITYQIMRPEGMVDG
The assay can be described thus: Tankyrase-2 enzyme inhibition test (Tankyrase-2 Chemiluminescent Assay Kit). It is filed as biochemical. The following applies: autoribosylation of GST-tankyrase-2 fusion protein, chemiluminescence. The procedure: Test Example 2: Tankyrase-2 Enzyme Inhibition Test
The enzyme activity of tankyrase-2 was evaluated using Tankyrase-2 Chemiluminescent Assay Kit (BPS Bioscience, Inc., Catalog No. 80566). The Tankyrase-2 Chemiluminescent Assay Kit is a kit for evaluating the enzyme activity of tankyrase-2 using autoribosylation of glutathione-S-transferase (GST)-tankyrase-2 fusion protein as an index. All the experimental materials except for PBS (PBST) buffer containing phosphate-buffered saline (PBS) and 0.05% Tween 20 are all included in the kit. The GST-tankyrase-2 enzyme diluted with 50 μL of 1× tankyrase buffer was added to the wells of a 96-well plate coated with glutathione. After the plate was left to stand overnight at 4° C., the plate was washed 3 times with the PBST buffer. 150 μL of blocking buffer was added thereto, and the plate was left to stand at room temperature for 30 minutes to block the wells. The plate was washed 3 times with the PBST buffer. Before the ribosylation reaction, an assay mixture containing a biotinylated substrate and a test compound diluted with 1× tankyrase buffer were mixed, whereby a reaction mixture was prepared. In order to start the ribosylation reaction, 50 μL of the reaction mixture was added to the wells. In a blank well, 1× tankyrase buffer was added in place of the reaction mixture containing a biotinylated substrate. The plate was left to stand at 30° C. for 1 hour. After the reaction, the plate was washed 3 times with the PBST buffer. Streptavidin-horseradish peroxidase (HRP) was diluted to 50-fold with the blocking buffer. The diluted streptavidin-HRP was added to the wells, and the plate was left to stand at room temperature for 30 minutes. The plate was washed 3 times with the PBST buffer. Immediately before use, 50 μL of the HRP chemiluminescent substrate A and 50 μL of the HRP chemiluminescent substrate B were mixed and 100 μL of the resulting mixture was added to the wells. The chemiluminescence was measured using a chemiluminescence measuring apparatus. The inhibition ratio was obtained according to the following formula 2. [Math. 2] Inhibition ratio (%)=100−{(chemiluminescence intensity when test compound was added)−(chemiluminescence intensity of blank)}/{(chemiluminescence intensity of control)−(chemiluminescence intensity of blank)}×100 Formula 2

[2] abbreviates: 1 μmol/L, DLD-1/TCF-Luc cells, luciferase activity after 18 hours.

Where two headings read alike, the source gives them in different places.

As to `N#Cc1cc(N2C(=O)N(CC3CCN(c4nccc5nc[nH]c(=O)c45)CC3)Cc3cccnc32)ccc1F` [Compound 47, 2-Fluoro-5-(2-oxo-3-{[1-(4-oxo-3,4-dihydropyrido[4,3-d]pyrimidin-5-yl)piperidin-4-yl]methyl}-3,4-dihydropyrido[2,3-d]pyrimidin-1(2H)-yl)benzonitrile], in assay [1] (setting [2]), the inhibition at 1 µM was 82%. The “Inhibition ratio (%) at 1 μmol/L” value at tankyrase-2 amounted to 80%.
As for `N#Cc1cc(N2C(=O)N(CC3CCN(c4nccc5nc[nH]c(=O)c45)CC3)Cc3ccccc32)ccn1` [Compound 34, 4-(2-Oxo-3-{[1-(4-oxo-3,4-dihydropyrido[4,3-d]pyrimidin-5-yl)piperidin-4-yl]methyl}-3,4-dihydroquinazolin-1(2H)-yl)picolinonitrile], the inhibition at 1 µM in assay [1] (DLD-1, 18 h) amounted to 78%. The “Inhibition ratio (%) at 1 μmol/L” value at tankyrase-2 worked out at 87%.
As to `COc1cc2ncnc(N3CCC(CN4Cc5cc(S(C)(=O)=O)ccc5N(Cc5ccccc5C#N)C4=O)CC3)c2cc1OC` [Compound 5, 2-[(3-{[1-(6,7-Dimethoxyquinazolin-4-yl)piperidin-4-yl]methyl}-6-(methylsulfonyl)-2-oxo-3,4-dihydroquinazolin-1(2H)-yl)methyl]benzonitrile], in assay [1] (setting [2]), the inhibition at 1 µM stood at 84%. Moreover, on tankyrase-2, the “Inhibition ratio (%) at 1 μmol/L” value came out at 94%.
The matching figures for `COc1cc2ncnc(N3CCC(CN4Cc5nccnc5N(c5ccnc(C#N)c5)C4=O)CC3)c2cc1OC` [Compound 24, 4-(3-{[1-(6,7-Dimethoxyquinazolin-4-yl)piperidin-4-yl]methyl}-2-oxo-3,4-dihydropteridin-1(2H)-yl)picolinonitrile]: 86% and 92%.
In the case of `COc1cncnc1N1CCC(CN2Cc3ccccc3N(c3ccnc(C#N)c3)C2=O)CC1` [Compound 32, 4-(3-{[1-(5-Methoxypyrimidin-4-yl)piperidin-4-yl]methyl}-2-oxo-3,4-dihydroquinazolin-1(2H)-yl)picolinonitrile], the inhibition at 1 µM in assay [1] (DLD-1, 18 h) was determined as 76%. The “Inhibition ratio (%) at 1 μmol/L” value at tankyrase-2 turned out to be 94%.
Regarding `N#Cc1cc(N2C(=O)N(CC3CCN(c4ncnc5[nH]c(=O)[nH]c45)CC3)Cc3ccccc32)ccn1` [Compound 36, 4-(2-Oxo-1-{[1-(8-oxo-8,9-dihydro-7H-purin-6-yl)piperidin-4-yl]methyl}-3,4-dihydroquinazolin-1(2H)-yl)picolinonitrile], the “Inhibition ratio (%) at 1 μmol/L” value turned out to be 79% in assay [1] (setting [2]) and 88% at tankyrase-2.
For the compound `N#Cc1cccc(N2C(=O)N(CC3CCN(c4ncnc5c[n+]([O-])ccc45)CC3)Cc3ccccc32)c1` [Compound 29, 4-(4-{[1-(3-Cyanophenyl)-2-oxo-1,2-dihydroquinazolin-3(4H)-yl]methyl}piperidin-1-yl)pyrido[3,4-d]pyrimidine-7-oxide], the inhibition at 1 µM in assay [1] (DLD-1, 18 h) worked out at 74%. Moreover, on tankyrase-2, the “Inhibition ratio (%) at 1 μmol/L” value is listed as 87%.
Turning to `COc1cc2ncnc(N3CCC(CN4Cc5ccccc5N(Cc5ccccc5C(N)=O)C4=O)CC3)c2cc1OC` [Compound 1, 2-[(3-{[1-(6,7-Dimethoxyquinazolin-4-yl)piperidin-4-yl]methyl}-2-oxo-3,4-dihydroquinazolin-1(2H)-yl)methyl]benzamide], the inhibition at 1 µM in assay [1] (setting [2]) was 88%. For the same compound, at tankyrase-2, the “Inhibition ratio (%) at 1 μmol/L” value came out at 91%.
Turning to `N#Cc1cc(N2C(=O)N(CC3CCN(c4ncnc5cc(N6CCOCC6)ccc45)CC3)Cc3ccccc32)ccn1` [Compound 37, 4-(3-{[1-(7-Morpholinoquinazolin-4-yl)piperidin-4-yl]methyl}-2-oxo-3,4-dihydroquinazolin-1(2H)-yl)picolinonitrile], the inhibition at 1 µM in assay [1] (DLD-1, 18 h) was 82%. Besides, the “Inhibition ratio (%) at 1 μmol/L” value at tankyrase-2 is 87%.
`COc1cc2ncnc(N3CCC(CN4Cc5ccccc5N(c5ccc(C(=O)O)c(C#N)c5)C4=O)CC3)c2cc1OC` [Compound 15, 2-Cyano-4-(3-{[1-(6,7-dimethoxyquinazolin-4-yl)piperidin-4-yl]methyl}-2-oxo-3,4-dihydroquinazolin-1(2H)-yl)benzoic acid]: the inhibition at 1 µM in assay [1] (setting [2]) turned out to be 84%. For the same compound, the “Inhibition ratio (%) at 1 μmol/L” value on tankyrase-2 stood at 92%.
As for `CC(=O)N1CCc2ncnc(N3CCC(CN4Cc5ccccc5N(c5ccc(F)c(C#N)c5)C4=O)CC3)c2C1` [Compound 44, 5-(3-{[1-(6-Acetyl-5,6,7,8-tetrahydropyrido[4,3-d]pyrimidin-4-yl)piperidin-4-yl]methyl}-2-oxo-3,4-dihydroquinazolin-1(2H)-yl)-2-fluorobenzonitrile], the inhibition at 1 µM in assay [1] (DLD-1, 18 h) amounted to 82%. The “Inhibition ratio (%) at 1 μmol/L” value on tankyrase-2 was found to be 93%.
For the compound `COc1cc2ncnc(N3CCC(CN4Cc5cccnc5N(c5ccnc(C#N)c5)C4=O)CC3)c2cc1OC` [Compound 22, 4-(3-{[1-(6,7-Dimethoxyquinazolin-4-yl)piperidin-4-yl]methyl}-2-oxo-3,4-dihydropyrido[2,3-d]pyrimidin-1(2H)-yl)picolinonitrile], the inhibition at 1 µM in assay [1] (setting [2]) was 75%. Also, the “Inhibition ratio (%) at 1 μmol/L” value on tankyrase-2 amounted to 98%.
Regarding `COc1cc2ncnc(N3CCC(CN4Cc5ccccc5N(c5ccc(F)c(C#N)c5)C4=O)CC3)c2cc1OC` [Compound 7, 5-(3-{[1-(6,7-Dimethoxyquinazolin-4-yl)piperidin-4-yl]methyl}-2-oxo-3,4-dihydroquinazolin-1(2H)-yl)-2-fluorobenzonitrile], the inhibition at 1 µM in assay [1] (setting [2]) came to 76%. On tankyrase-2, the “Inhibition ratio (%) at 1 μmol/L” value is on record as 95%.
